These results are taken from patent US10039729B2, “Use of kukoamine A and kukoamine B” (Tianjin Chase Sun Pharmaceutical Co., Ltd., priority 2010, dated 2018).

Data set [1] has as its system murine peritoneal macrophages. The data set can be described thus: mRNA expression of TNF-α and IL-6 in murine peritoneal macrophages stimulated by LPS and CpG DNA. Particulars: 100, 200 μM, dose-dependent. The format is cell-based. The source says:
16.1 Methods: Influence of KB on the mRNA expression of TNF-α and IL-6 in murine peritoneal macrophages stimulated by LPS and CpG DNA was observed. Methods were the same as embodiment 15.

In data set [2] the test system is murine peritoneal macrophages. In words: Vitality of murine peritoneal macrophages (MTT method). The format is cell-based. Particulars: KB or KB plus LPS or CpG DNA; 24 h. The method, then:
(2) Influence on vitality of murine peritoneal macrophages: Experiment methods are as above. Influences of the combination of KB with LPS or CpG DNA on vitality of murine peritoneal macrophages were assayed.
(Formazan colour is commonly taken as a measure of viable cells.)

A further data set relates to NF-κB. In words: NF-κB activation in RAW264.7 cells (ELISA of nuclear p50/p65, luciferase reporter gene assay). The format is cell-based, murine. Conditions: KB 200 μM. Here is the method:
[…]
Detection of NF-κB activation using ELISA: Each well was added with 30 μl binding solution (3.2 μl DTT and 16.2 μl Herring sperm DNA were diluted in 1.6 ml binding solutions); each sample well was added with 20 μl sample ([…]); positive control wells was added with 20 μl p50; blank control wells were added with 20 μl dissolution buffer (0.9 μl 1M DTT and 1.8 μl protease inhibitors was diluted in 177.3 μl dissolution buffer AM2); the microtiter plate was shaken for 30 seconds for completely mixing, incubated at room temperature for 1 h, and then washed thrice with 200 μl 1×wash solution (450 μl 10×wash solution were diluted in 4.05 ml ddH2O) and gentle shaking for 5 min each time; each well was added with 100 μl NF-κB antibody (1:1000), incubated for 1 h, then washed thrice with 200 μl 1×wash solution and gentle shaking for 5 min each time; each well was added with 100 μl HRP antibody (1:1000), incubated for 1 h, then washed four times with 200 μl 1×wash solution and gentle shaken for 5 min each time; each well was added with 100 μl detection reagent, incubated for 5 min away from light, and then added with 100 μl stop solution; the absorbance value at 450 nm of each well was detected. […]

In a further data set the test system is RAW264.7 cells. The data set can be described thus: Semi-quantitative RT-PCR of TLR4, TLR9, MyD88 and western blot of NF-κB p65 in RAW264.7 cells. The format is cell-based, murine. Particulars: KB 200 μM. The method, then:
Reaction mixtures were added into 0.2 ml PCR tubes. The reaction mixture included 1 μl cDNA, 10.0 μl 2×Taq Master Mix, 1 μl upstream primer (10 μM), 1 μl downstream primer (10 μM) and 7 μl RNase-free H2O. PCR programs are as follows:
Finally, the PCR products were detected by agarose gel electrophoresis; 1% agarose gel was prepared and cast; 5 μl PCR products of each tube were loaded, electrophoresed at 100 v for 30 min; then gel was took out and scanned; the images were analysed by Quantity One software.
(2) Inhibition of KB on activation of NF-κB p65 in RAW264.7 cells induced by LPS and CpG DNA: Methods are as above; nucleoprotein extraction continued to be incubated for 1 h after sample loading; then, NF-κB p65 in it was assayed using westernblot; the procedure of nucleoprotein extraction and westernblot were consistent with embodiment 23.
On the technique in general: Immunoblotting shows a protein as a band on a membrane.

The nature of data set [3]: Major organ pathological morphous of mice after KB injection. The format is in vivo, Kunming mice. Conditions: KB 60 mg/kg single dose; 24, 48 and 72 h. Here is the method: 30.1 Methods: A total of 16 Kunming mice were randomly divided into four groups; each group has 4 mice, half male and half female; for the purpose of experiment a medium group and a KB (60 mg/kg) treatment group were established; mice in medium group were immediately killed by cervical dislocation, and KB treatment group were killed separately killed at 24, 48 and 72 h after injection; the cavitas thoracis and abdominal cavity of mice were cut open; organs such as heart, liver, lung, kidney and intestine were moved out, rinsed with sterile saline, plunged into 10% formaldehyde solution for fixing, dehydrated, embedded in paraffin, HE dyed and mounted; organ histopathological changes were observed under a light microscope.

Take `NCCCN(CCCCNCCCNC(=O)CCc1ccc(O)c(O)c1)C(=O)CCc1ccc(O)c(O)c1` [KB, Kukoamine B]: in data set [1], the “mRNA expressions of TNF-α and IL-6 up-regulated by CpG DNA” value was “significantly inhibit the mRNA expressions”; the “mRNA expressions of TNF-α and IL-6 up-regulated by LPS” value is “significantly inhibit the mRNA expressions”. Further, in data set [2], the “vitality of murine peritoneal macrophages” value is given as “The same result was also obtained”. In addition, the “increase of p50 and p65 levels in nuclear proteins induced by LPS and CpG DNA” value in the data set with NF-κB (2 h, ELISA) is given as “significantly inhibited”. Besides, in the data set with NF-κB (6 h), the “NF-κB activation induced by LPS and CpG DNA (luciferase reporter gene assay)” value is “inhibit NF-κB activation”. Besides, the “up-regulated expression of TLR4, TLR9 and MyD88 stimulated by LPS and CpG DNA” value in the data set on RAW264.7 cells (4 h, semi-quantitative RT-PCR) is recorded as “inhibited up-regulated expression”. Also, in the data set with RAW264.7 cells (LPS 100 ng/ml, CpG DNA 10 μg/ml, western blot), the “up-regulation of NF-κB p65 in RAW264.7 cell nucleus induced by LPS and CpG DNA” value is reported as “inhibit the up-regulation of NF-κB p65”. Moreover, in data set [3], the cardiac muscle histopathology result is “no cell necrosis and inflammatory cell infiltration”; the “changes in major organs of mice” value is on record as “no significant changes in major organs”; the kidney histopathology entry is “normal morphology and no obvious changes”; the liver histopathology entry is “no pathological changes such as cellular swelling and necrosis”. In addition, the lung histopathology result in data set [3] was “no congestion and inflammatory cell infiltration”.
